Measured values as given in patent US9701689B2, “Substituted pyridines and pyridazines as CCR10 receptor inhibitors” (KYOWA HAKKO KIRIN CO., LTD., priority 2012, dated 2017).

Each compound was assayed against T1, human CCR10 (Homo sapiens, UniProt P46092) (assay: CCR10 antagonistic effect: calcium assay of human CCR10 (CTACK-induced increase of intracellular calcium in hCCR10G16 cells)). Details: at a concentration of not more than 1000 nmol/L; human CCR10-expressing hCCR10G16 cells, 300 nmol/L CTACK added; read-out: inhibition of increase in the calcium ion concentration.
T1 construct: expressed in transfected cells; host or cells: KJMGER8 cells (Namalwa cell-derived line), beta-estradiol-induced; hCCR10G16 cells
T1 sequence (P46092 1-362): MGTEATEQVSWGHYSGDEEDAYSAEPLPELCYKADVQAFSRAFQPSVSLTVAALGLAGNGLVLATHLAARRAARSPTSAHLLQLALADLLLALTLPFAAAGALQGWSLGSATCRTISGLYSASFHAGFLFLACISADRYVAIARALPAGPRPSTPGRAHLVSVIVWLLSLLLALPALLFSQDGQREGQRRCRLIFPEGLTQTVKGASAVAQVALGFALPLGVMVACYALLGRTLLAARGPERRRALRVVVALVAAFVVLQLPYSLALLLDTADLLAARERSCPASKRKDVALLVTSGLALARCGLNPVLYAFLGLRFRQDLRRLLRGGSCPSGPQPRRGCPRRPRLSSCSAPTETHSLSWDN
Type: cell-based
How it was run: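 Inhibition of CTACK-evoked calcium flux (max minus min Fluo-3 fluorescence over ~5 min, FDSS) was calculated against control in β-estradiol-induced human CCR10/Gα16 KJMGER8 cells, after 30 min compound preincubation at 37 °C; CTACK added from a 300 nmol/L solution.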

| Compound | inhibition at up to 1 µM [%] |
| --- | --- |
| COC(=O)C1(c2ccccc2)CCN(C(=O)c2cnc(S(N)(=O)=O)c(Cl)c2Nc2cccc(C)c2)CC1 [Compound 201, methyl 1-[5-chloro-6-sulfamoyl-4-(m-tolylamino)nicotinoyl]-4-phenylpiperidine-4-carboxylate] | ≥ 50 |
| Cc1cccc(Nc2c(C(=O)N3CC=C(c4ccc(F)cc4)CC3)cnc(S(N)(=O)=O)c2Cl)c1 [Compound 202, 3-chloro-5-[4-(4-fluorophenyl)-1,2,3,6-tetrahydropyridine-1-carbonyl]-4-(m-tolylamino)pyridine-2-sulfonamide] | ≥ 50 |
| Cc1cccc(Nc2c(C(=O)N3CCC(C(N)=O)(c4ccccc4)CC3)cnc(S(N)(=O)=O)c2Cl)c1 [Compound 203, 1-[5-chloro-6-sulfamoyl-4-(m-tolylamino)nicotinoyl]-4-phenylpiperidine-4-carboxamide] | ≥ 50 |
| CCS(=O)(=O)c1ncc(C(=O)N2CCC(c3ccc(F)cc3)CC2)c(Nc2ccccc2C)c1Cl [Compound 204, [5-chloro-6-(ethylsulfonyl)-4-(o-tolylamino)pyridin-3-yl][4-(4-fluorophenyl)piperidin-1-yl]methanone] | ≥ 50 |
| Cc1ccccc1Nc1c(C(=O)N2CCC(c3ccc(F)cc3)CC2)cnc(S(=O)(=O)c2ccccc2)c1Cl [Compound 205, [5-chloro-6-(phenylsulfonyl)-4-(o-tolylamino)pyridin-3-yl][4-(4-fluorophenyl)piperidin-1-yl]methanone] | ≥ 50 |
| Cc1cccc(Nc2c(C(=O)N3CCN(c4ccccc4Cl)CC3)cnc(S(N)(=O)=O)c2Cl)c1 [Compound 206, 3-chloro-5-[4-(2-chlorophenyl)piperazine-1-carbonyl]-4-(m-tolylamino)pyridine-2-sulfonamide] | ≥ 50 |
| Cc1c(S(N)(=O)=O)ncc(C(=O)N2CCC(c3ccc(F)cc3)CC2)c1NC1CCCCC1 [Compound 207, 4-(cyclohexylamino)-5-[4-(4-fluorophenyl)piperidine-1-carbonyl]-3-methylpyridine-2-sulfonamide] | ≥ 50 |
| COC1(c2ccc(F)cc2)CCN(C(=O)c2cnc(S(N)(=O)=O)c(Cl)c2Nc2cccc(C)c2)CC1 [Compound 208, 3-chloro-5-[4-(4-fluorophenyl)-4-methoxypiperidine-1-carbonyl]-4-(m-tolylamino)pyridine-2-sulfonamide] | ≥ 50 |
| Cc1cccc(Nc2c(C(=O)N3CCN(c4ccc(F)cc4)C(=O)C3)cnc(S(N)(=O)=O)c2Cl)c1 [Compound 209, 3-chloro-5-[4-(4-fluorophenyl)-3-oxopiperazine-1-carbonyl]-4-(m-tolylamino)pyridine-2-sulfonamide] | ≥ 50 |
| Cc1cccc(Sc2c(C(=O)N3CCC(c4ccc(F)cc4)CC3)cnc(S(N)(=O)=O)c2Cl)c1 [Compound 210, 3-chloro-5-[4-(4-fluorophenyl)piperidine-1-carbonyl]-4-(m-tolylthio)pyridine-2-sulfonamide] | ≥ 50 |
| NS(=O)(=O)c1ncc(C(=O)N2CCC(c3ccc(F)cc3)CC2)c(NC(=O)c2ccccc2)c1Cl [Compound 211, N-{3-chloro-5-[4-(4-fluorophenyl)piperidine-1-carbonyl]-2-sulfamoylpyridin-4-yl}benzamide] | ≥ 50 |
| NS(=O)(=O)c1ncc(C(=O)N2CCC(c3ccc(F)cc3)CC2)c(Cc2ccccc2)c1Cl [Compound 212, 4-benzyl-3-chloro-5-[4-(4-fluorophenyl)piperidine-1-carbonyl]pyridine-2-sulfonamide] | ≥ 50 |
| Cc1cccc(Nc2c(C(=O)N3CC4CN(c5ccc(F)cc5)CC4C3)cnc(S(N)(=O)=O)c2Cl)c1 (stereo not drawn) [Compound 213, 3-chloro-5-[5-(4-fluorophenyl)octahydropyrrolo[3,4-c]pyrrole-2-carbonyl]-4-(m-tolylamino)pyridine-2-sulfonamide] | ≥ 50 |
| Cc1c(S(N)(=O)=O)ncc(C(=O)N2CCC(c3ccc(F)cc3)CC2)c1NCC1CCOCC1 [Compound 214, 5-[4-(4-fluorophenyl)piperidine-1-carbonyl]-3-methyl-4-[(tetrahydro-2H-pyran-4-yl)methylamino]pyridine-2-sulfonamide] | ≥ 50 |

The remaining lines, values ahead:

| inhibition at up to 1 µM [%] | Compound |
| --- | --- |
| ≥ 50 | Cc1c(S(=O)(=O)Nc2ccon2)ncc(C(=O)N2CCC(c3ccc(F)cc3)CC2)c1NC1CCCCC1 [Compound 215, 4-(cyclohexylamino)-5-[4-(4-fluorophenyl)piperidine-1-carbonyl]-N-(isoxazol-3-yl)-3-methylpyridine-2-sulfonamide] |
| ≥ 50 | CC(=O)C1(c2ccc(F)cc2)CCN(C(=O)c2cnc(S(N)(=O)=O)c(Cl)c2Nc2cccc(C)c2)CC1 [Compound 216, 5-[4-acetyl-4-(4-fluorophenyl)piperidine-1-carbonyl]-3-chloro-4-(m-tolylamino)pyridine-2-sulfonamide] |
| ≥ 50 | NS(=O)(=O)c1ncc(C(=O)N2CCC(c3ccc(F)cc3)CC2)c(N[C@H]2C[C@@H]3CC[C@H]2O3)c1Cl [Compound 217, 4-((1R,2S,4S)-7-oxabicyclo[2.2.1]heptan-2-ylamino)-3-chloro-5-[4-(4-fluorophenyl)piperidine-1-carbonyl]pyridine-2-sulfonamide] |
| ≥ 50 | Cc1cccc(Nc2c(C(=O)N3CCC4(CC3)CNc3ccccc3C4)cnc(S(N)(=O)=O)c2Cl)c1 [Compound 218, 3-chloro-5-[2′,4′-dihydro-1′H-spiro[piperidine-4,3′-quinoline]-1-ylcarbonyl]-4-(m-tolylamino)pyridine-2-sulfonamide] |
| ≥ 50 | Cc1ncc(Nc2c(C(=O)N3CCC(c4ccc(F)cc4)CC3)cnc(S(N)(=O)=O)c2Cl)c(C)n1 [Compound 219, 3-chloro-4-(2,4-dimethylpyrimidin-5-ylamino)-5-[4-(4-fluorophenyl)piperidine-1-carbonyl]pyridine-2-sulfonamide] |
| ≥ 50 | Cc1c(S(N)(=O)=O)ncc(C(=O)N2CCC(c3ccc(F)cc3)CC2)c1NC(C)c1ccccc1 (stereo not drawn) [Compound 220, 5-[4-(4-fluorophenyl)piperidine-1-carbonyl]-3-methyl-4-(1-phenylethylamino)pyridine-2-sulfonamide] |
| ≥ 50 | Cc1c(S(N)(=O)=O)ncc(C(=O)N2CCC(c3ccc(F)cc3)CC2)c1NCc1cccnc1 [Compound 221, 5-[4-(4-fluorophenyl)piperidine-1-carbonyl]-3-methyl-4-(pyridin-3-ylmethylamino)pyridine-2-sulfonamide] |
| ≥ 50 | Cc1c(S(=O)(=O)Nc2ccon2)ncc(C(=O)N2CCC(c3ccc(F)cc3)CC2)c1NCCc1ccccc1 [Compound 222, 5-[4-(4-fluorophenyl)piperidine-1-carbonyl]-N-(isoxazol-3-yl)-3-methyl-4-(phenethylamino)pyridine-2-sulfonamide] |
| ≥ 50 | Cc1c(S(=O)(=O)Nc2ccon2)ncc(C(=O)N2CCC(c3ccc(F)cc3)CC2)c1NCc1ccccn1 [Compound 223, 5-[4-(4-fluorophenyl)piperidine-1-carbonyl]-N-(isoxazol-3-yl)-3-methyl-4-(pyridin-2-ylmethylamino)pyridine-2-sulfonamide] |
| ≥ 50 | Cc1c(S(=O)(=O)Nc2ccon2)ncc(C(=O)N2CCC(c3ccc(F)cc3)CC2)c1NCCN1CCOCC1 [Compound 224, 5-[4-(4-fluorophenyl)piperidine-1-carbonyl]-N-(isoxazol-3-yl)-3-methyl-4-(2-morpholinoethylamino)pyridine-2-sulfonamide] |
| ≥ 50 | O=C(c1cnc(S(=O)(=O)Nc2ccon2)c(F)c1NCc1ccccc1)N1CCC(c2ccc(F)cc2)CC1 [Compound 225, 4-(benzylamino)-3-fluoro-5-[4-(4-fluorophenyl)piperidine-1-carbonyl]-N-(isoxazol-3-yl)pyridine-2-sulfonamide] |
| ≥ 50 | CCNC(=O)NS(=O)(=O)c1ncc(C(=O)N2CCC(c3ccc(F)cc3)CC2)c(Nc2ccccc2C)c1C [Compound 226, N-(ethylcarbamoyl)-5-[4-(4-fluorophenyl)piperidine-1-carbonyl]-3-methyl-4-(o-tolylamino)pyridine-2-sulfonamide] |
| ≥ 50 | Cc1c(S(=O)(=O)Nc2ccon2)ncc(C(=O)N2CCC(c3ccc(F)cc3)CC2)c1NCC1CCC1 [Compound 227, 4-(cyclobutylmethylamino)-5-[4-(4-fluorophenyl)piperidine-1-carbonyl]-N-(isoxazol-3-yl)-3-methylpyridine-2-sulfonamide] |
| ≥ 50 | Cc1c(S(N)(=O)=O)ncc(C(=O)N2CCC(c3ccc(F)cc3)CC2)c1NCc1cccc(C#N)c1 [Compound 228, 4-(3-cyanobenzylamino)-5-[4-(4-fluorophenyl)piperidine-1-carbonyl]-3-methylpyridine-2-sulfonamide] |
| ≥ 50 | Cc1cc(F)ccc1Nc1cc(S(N)(=O)=O)nnc1C(=O)N1CCC(c2ccc(F)cc2)CC1 [Compound 229, 5-(4-fluoro-2-methylphenylamino)-6-[4-(4-fluorophenyl)piperidine-1-carbonyl]pyridazine-3-sulfonamide] |
| ≥ 50 | NS(=O)(=O)c1ncc(C(=O)N2CCC(c3ccc(F)cc3)CC2)c(NC2(c3ccccc3)CC2)c1Cl [Compound 230, 3-chloro-5-[4-(4-fluorophenyl)piperidine-1-carbonyl]-4-(1-phenylcyclopropylamino)pyridine-2-sulfonamide] |
